The test system of one experiment is A549. Nature of the experiment: Growth inhibitory effect of compound was measured on A-549 human lung adenocarcinoma cancer cell line. Format: functional, cell-based.
The test system of another experiment is HCT-15. Nature of the experiment: Growth inhibitory effect of compound was measured on HCT-15 human colon adenocarcinoma cancer cell line. Format: functional, cell-based.
The next experiment has as its system HT1197. Description: Growth inhibitory effect of compound was measured on HT1197 human bladder adenocarcinoma cancer cell line. It is filed as functional, cell-based.
For experiment [1], the target named is T1, 1-phosphatidylinositol 4,5-bisphosphate phosphodiesterase gamma-1 (Homo sapiens, UniProt P19174).
T1 sequence (P19174 whole entry): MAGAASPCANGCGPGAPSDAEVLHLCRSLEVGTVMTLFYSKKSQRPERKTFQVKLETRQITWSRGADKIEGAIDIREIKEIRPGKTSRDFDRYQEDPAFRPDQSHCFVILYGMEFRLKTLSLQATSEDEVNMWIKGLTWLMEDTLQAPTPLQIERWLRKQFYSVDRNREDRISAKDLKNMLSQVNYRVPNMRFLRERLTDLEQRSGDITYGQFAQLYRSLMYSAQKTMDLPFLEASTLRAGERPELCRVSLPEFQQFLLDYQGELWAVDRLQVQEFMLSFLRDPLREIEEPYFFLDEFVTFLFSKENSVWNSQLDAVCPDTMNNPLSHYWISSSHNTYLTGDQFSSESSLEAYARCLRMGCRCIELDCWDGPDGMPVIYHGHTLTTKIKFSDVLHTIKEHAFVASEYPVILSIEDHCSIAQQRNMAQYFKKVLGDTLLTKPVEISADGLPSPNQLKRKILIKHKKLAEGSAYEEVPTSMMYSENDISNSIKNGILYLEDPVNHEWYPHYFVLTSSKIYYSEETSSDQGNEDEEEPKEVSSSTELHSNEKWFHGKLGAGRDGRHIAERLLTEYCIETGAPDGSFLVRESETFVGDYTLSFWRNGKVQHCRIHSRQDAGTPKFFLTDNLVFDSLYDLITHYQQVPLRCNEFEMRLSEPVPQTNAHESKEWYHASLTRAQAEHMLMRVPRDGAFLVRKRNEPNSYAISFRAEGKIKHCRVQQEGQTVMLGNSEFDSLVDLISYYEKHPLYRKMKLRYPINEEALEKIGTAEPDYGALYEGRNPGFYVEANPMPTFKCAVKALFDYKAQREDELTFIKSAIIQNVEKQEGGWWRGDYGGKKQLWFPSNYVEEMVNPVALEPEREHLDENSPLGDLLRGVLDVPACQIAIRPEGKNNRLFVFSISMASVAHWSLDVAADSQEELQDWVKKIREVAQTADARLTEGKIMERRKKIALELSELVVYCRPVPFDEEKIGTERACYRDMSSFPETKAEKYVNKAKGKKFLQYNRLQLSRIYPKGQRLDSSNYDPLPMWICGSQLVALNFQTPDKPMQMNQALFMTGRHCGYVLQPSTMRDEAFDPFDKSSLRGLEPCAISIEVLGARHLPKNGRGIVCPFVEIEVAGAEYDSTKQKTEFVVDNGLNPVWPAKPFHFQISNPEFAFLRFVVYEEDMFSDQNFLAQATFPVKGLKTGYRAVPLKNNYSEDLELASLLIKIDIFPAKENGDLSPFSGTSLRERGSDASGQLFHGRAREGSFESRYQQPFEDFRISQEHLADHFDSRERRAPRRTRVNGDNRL
Nature of the experiment: Inhibitory concentration was evaluated against phospholipase C-gamma1.

For the next experiment, the system named is MCF7. Nature of the experiment: Growth inhibitory effect of compound was measured on MCF-7 human breast adenocarcinoma cancer cell line. Format: functional, cell-based.

In brackets after ≈: the same amount, converted by molar mass.

By IC50 is commonly meant the midpoint of a concentration-inhibition curve. Low values mean inhibition by little substance, high ones a need for much substance.

Take `COc1cc(/C=C/C(=O)OC[C@@]23CC[C@@]4(C(=O)O)CCC(C)(C)C[C@H]4C2=CCC2[C@@]4(C)CC[C@H](O)C(C)(C)C4CC[C@]23C)ccc1O` (stereo not given in full): the IC50 was found to be 0.73 µg/mL (≈ 1.13 µM) in the experiment with A549; 1.41 µg/mL (≈ 2.17 µM) with HCT-15; 3.53 µg/mL (≈ 5.44 µM) in the experiment on HT1197; 35.7 µM in experiment [1]; 2.03 µg/mL (≈ 3.13 µM) in the experiment on MCF7.

With `COc1cc(/C=C\C(=O)OC[C@@]23CC[C@@]4(C(=O)O)CCC(C)(C)C[C@H]4C2=CCC2[C@@]4(C)CC[C@H](O)C(C)(C)C4CC[C@]23C)ccc1O` (stereo not given in full), the IC50 was found to be 1.79 µg/mL (≈ 2.76 µM) in the experiment with A549; 1.44 µg/mL (≈ 2.22 µM) in the experiment with HCT-15; 2.34 µg/mL (≈ 3.61 µM) in the experiment on HT1197; 44.6 µM in experiment [1]; 2.59 µg/mL (≈ 3.99 µM) in the experiment on MCF7.
